Legend:
VM-M3 cells = experiment: KDE in VM-M3 model of cancer anorexia cachexia syndrome (Experiment 4c); type: in vivo, VM/Dk mice; conditions: 30% KDE in diet
Text: Animals: Five breeding pairs of the VM/Dk strain of mice were used to establish and propagate a VM/Dk mouse colony in the University of South Florida (USF) Morsani College of Medicine Vivarium according to standard husbandry protocol. Male and female VM/Dk mice between 10-23 weeks of age were singly housed to accurately assess individual animal food intake. Bodyweight and food intake were tracked daily prior to and post-social isolation to ensure bodyweight and food intake normalized prior to cell inoculation (Table 1). Animals were distributed into one of four groups: Sham Male (SH-M), Sham Female (SH-F), Cancer Male (CA-M), and Cancer Female (CA-F). Each cancer animal was matched with a sham animal of equivalent sex, bodyweight, age, and food intake (FIGS. 8A-8B) to ensure appropriate cancer and sex-specific comparisons. To determine KDE-induced effects in CACS, VM/Dk animals were distributed into one of three groups: KDE+VM-M3, VM-M3, and Sham with equivalent sex, bodyweight, age and food intake at baseline (FIG. 13A). One premature death occurred in SH-F (Experiment 1a) and Sham (Experiment 4c) groups immediately post-inoculation. To determine KDE-induced effects post-LPS administration, VM/Dk animals were distributed into two groups (FIGS. 14A-14B): KDE+LPS and LPS of equivalent bodyweights. All procedures were approved by the USF Institutional Animal Care and Use Committee (USF IACUC; Protocol Number R1900 & R5829) and performed under strict adherence to the NIH Guide for the Care and Use of Laboratory Animals.
(§1) VM-M3 Cell and Lipopolysaccharide Implantation: For VM-M3 implantation in the model characterization experiments (FIG. 1-5; FIG. 8-12), ˜1×10^6 VM-M3 cells (T. Seyfried, Boston College) in 300 μL sterile PBS (CA-M and CA-F) or 300 μL sterile PBS-only (SH-M and SH-F) were injected subcutaneously into the left abdominal flank resulting in primary tumor formation at the injection site, and subsequently systemically metastasizes to most major organs, namely the liver, kidneys, spleen, lungs, and brain. […] This method of implantation further minimized variability in markers of tumor progression, and therefore provides a useful optional method technique in the VM-M3 model for efficient analysis of potential therapeutic agents. To determine KDE-induced effects on CACS, 1×10^6 VM-M3 cells in 300 μL sterile PBS (KDE+VM-M3 and VM-M3) or 300 μL sterile PBS-only (Sham) were administered intraperitoneally (FIG. 6; FIG. 13). For LPS administration in the septic atrophy model, LPS (Escherichia coli 055:B5; L2880; Sigma-Aldrich, St. Louis, MO) was diluted in sterile PBS and administered intraperitoneally at 10 mg/kg as pilot work indicated a maximal, yet non-fatal, ˜15% bodyweight reduction at 10 mg/kg dose.
Tumor Growth and Metastasis: Tumor growth was monitored weekly as a measure of bioluminescence using the Xenogen IVIS Spectrum system (Caliper LS, Hopkinton, MA). Data acquisition and analysis was performed using the Living Image@ software (Caliper LS). Approximately 15 minutes prior to in vivo imaging, VM/Dk mice received an intraperitoneal injection of D-Luciferin (50 mg/kg; 88293, Thermo Fisher Scientific; Waltham, MA). Bioluminescent signal was obtained using the IVIS Lumina cooled CCD camera system in both prone and supine positions. As only the cancer cells were transfected with the luciferase gene, bioluminescent signal (photons/sec) of the whole animal was measured and tracked over time as an indicator of tumor burden and metastatic spread. At EOL, primary tumor, spleen, liver, and adipose tissue were gathered and saturated with D-Luciferin (10 μL D-Luciferin+PBS/g tissue at 5 mg D-Luciferin/mL PBS dilution) for 5 mins and imaged to determine tumor burden. Ascites fluid was imaged 15 minutes after resuspension with D-Luciferin (20 μL D-Luciferin+PBS/mL ascites fluid at 5 mg D-Luciferin/mL PBS dilution) to assess presence of circulating tumor cells. […]

[1] = KDE in LPS-induced sepsis, inflammation-induced atrophy, ad libitum fed (Experiment 5b); type: in vivo, VM/Dk mice; conditions: single 4 mL/kg KDE gavage after 10 mg/kg LPS
Method: as §1
Body Composition: Bodyweight was assessed daily at the same time (7:00-9:00 AM). At EOL, bodyweight and weights of ascites fluid, primary tumor, calf (combined gastrocnemius & soleus), anterior thigh (quadriceps), intraperitoneal fat pads, liver and spleen tissue were measured (Table 1; Experiment 1a&b). A follow-up time course experiment was conducted at weeks 1, 2, and 3 to assess weekly changes in bodyweight and aforementioned tissues for both cancer and sham-matched control animals (Experiment 2). For follow up evaluation of KDE in CACS, bodyweight was tracked daily with tissue weight determined at 21-days, prior to EOL (Experiment 4c). All tissue weights were gathered at harvest and normalized to baseline bodyweight (not influenced by cachexia progression) to allow for appropriate comparison between animals. For evaluation of KDE in LPS, bodyweight was tracked daily for evaluation pre- and post-LPS administration (Experiment 5b&c).
Food Intake and Ketone Diester Administration: Standard diet dry food (2018 Teklad Global 18% Protein Rodent Diet, Harlan) was mixed with deionized water (1 g dry food/mL deionized water) into a consistent paste and placed on a 100×15 mm dish. Food intake was tracked daily at the same time (7:00-9:00) and replaced every other day to ensure fresh food. […] As pilot work indicated potential water evaporation in food paste in ventilated cages, dehydration standard curve was calculated across various volumes of plated food (5, 10, 25.0, 50.0, 100 g/food) with and without KDE over a two-day period. […]

[2] = weekly, KDE+VM-M3 vs VM-M3 and Sham

## CC(=O)CC(=O)OCCC(C)OC(=O)CC(C)=O (centres unmarked) [KDE, R/S 1,3-butanediol acetoacetate diester]
VM-M3 cells; KDE+VM-M3 vs VM-M3
  blood lactate: No difference
  food intake (anorexic phenotype): attenuation of the predicted anorexic phenotype
VM-M3 cells; daily, KDE+VM-M3 vs VM-M3 and Sham
  bodyweight: lower bodyweight
VM-M3 cells; week 3, KDE+VM-M3 group (VM-M3 alone 3.0 g, Sham 0 g)
  ascites fluid weight: 1.9 g
VM-M3 cells; week 3, KDE+VM-M3 vs VM-M3
  ascites fluid (surrogate marker of metastatic spread): significantly reduced
  intraperitoneal adipose tissue weight (adipose tissue catabolism): unable to alter adipose tissue catabolism
  serum IGF-1: did not alter circulating anabolic hormone levels
  serum insulin: did not alter circulating anabolic hormone levels
  skeletal muscle atrophy (Gastrocnemius, Soleus, Quadricep, Tibialis Anterior, Hind Limb weights): did attenuate muscle atrophy
VM-M3 cells; week 3, across groups
  cardiac tissue weight set to baseline bodyweight: unaltered
VM-M3 cells; weekly imaging, KDE+VM-M3 vs VM-M3
  whole animal tumor burden (in vivo bioluminescence): non-significant reductions
VM-M3 cells; [2]
  blood glucose: reductions in blood glucose
  circulating ketones: sustained elevations
[1]; 1 day post LPS
  anorexic symptoms (percentage caloric restriction): significantly reduced
[1]; first 24 hours, vs LPS with water
  attenuation of bodyweight loss: 47%
[1]; followed 13 days
  chronic LPS-induced bodyweight loss: significantly attenuated
[1]; LPS alone did not recover within 13 days
  time to recovery (return to baseline bodyweight): ≤ 10 days

Source: US12648924B2, “Prevention and treatment of effects of aging and age-associated disorders with ketone supplementation” (priority 2020, dated 2026)
